According to US11571413B2, “Nicotinamide riboside treatments of domesticated meat animals” (Kansas State University Research Foundation, priority 2017, dated 2023):
Marks after values point to notes of the source that are not given here.

Key:
[1] = test system: finishing barrows; assay: Finishing pig carcass measures and fabrication (Example IV); format: in vivo; settings: 10 days
Protocol: Seven days prior to the beginning of the experiment, 10 finishing barrows (initial BW 111.9±1.6 kg) were assigned to individual pens located at the East Finisher facility of the Kansas State University Swine Teaching and Research Center (Manhattan, Kans.). Each pen was 7.4 m^2 with a slatted floor, contained a nipple waterer and an individual dry feeder that allowed ad libitum access to food and water. Barrows were randomly assigned to 1 of 2 NR treatments, 0 or 30 mg/kg daily of NR mixed in Karo® syrup and administered by oral gavage. Barrows were administered their assigned treatment for 10 days, after which they were harvested under USDA inspection. Twenty-four hours after harvest, carcass measurements were taken by trained personnel, carcasses were fabricated into the 5 major wholesale cuts, and whole-boneless loins were vacuum packaged and aged for 10 days. Loin were cut into 3 chops with chop 1 being used for day-0 metmyoglobin reducing ability (MRA) analysis, chop 2 being used for day-4 MRA and oxygen consumption rate (OCR) analyses, and chop 3 for 8-day objective/subjective color evaluation and MRA and OCR analyses.

[2] = test system: finished market barrows; assay: Semitendinosus muscle NAD+ content by HPLC (Example V); format: in vivo, pig; settings: 30 mg/kg BW oral daily, 10 days
Protocol: Fourteen days prior to harvest, 20 finished market barrows (initial body weight 268 pounds) were randomly assigned to 1 of 2 treatments: 0 or 30 mg/kg body weight of nicotinamide riboside, both orally administered daily in 20 ml of Karo® Syrup. Ten days prior to harvest, pigs were restrained via a snare and treatments were administered. On day 7, barrows were subjected to a performance test where they were walked around a track at 0.88 m/s until subjective fatigue was achieved. Three days following the performance test, barrows were harvested and a portion of the semitendinosus muscle was collected within 45 minutes. These samples were analyzed for NAD+ content via HPLC methodology.

[3] = test system: fertilized broiler eggs; assay: In ovo NR injection at 11 days of incubation: chick weight and Pectoralis major measurements (Example 1); format: in vivo, chicken
Protocol: At 11-days of incubation, 60 fertilized broiler eggs were randomly assigned to completely randomized design with a 2×2 factorial arrangement. Factor 1 comprised treatment, with eggs injected with 100 μl of 0.9% sterile saline solution (NRNeg) or 250 mM NR in sterile saline (NRPos). Factor 2 comprised injection location, with treatments injected into the yolk or albumen. Eggs were incubated at 37±3° C. and a relative humidity of 40±2% for 7 days. Humidity was increased to 60±2% at the same temperature for the final 3 days of incubation. Twenty-four hours after hatching, chicks were euthanized by exposure to CO2 and decapitation. Measurements including chick weight and left Pectoralis major weight, length, and depth were taken for analysis.

[4] = test system: Fertilized broiler eggs (Cobb 500); assay: NR concentration on avian embryonic myogenesis, d 19 embryo morphometrics (Example II); format: in vivo, chicken; settings: 100 μl into yolk d 10, d 19 embryos
Protocol: Fertilized broiler eggs (n=60; Cobb 500) were randomly assigned to 1 of 4 treatments: 0.0, 250, 500, or 1,000 mM NR in sterile saline. At day 10 of incubation, 100 μl of treatment solution was injected into the egg yolk. Eggs were incubated at 37±3° C. and a relative humidity of 40±2%. At day 19 of incubation, embryos were euthanized by prolonged exposure to CO2 gas and decapitation. Measurements including: embryo weight; crown-rump length; chest circumference (CC); and left Pectoralis major (PM) weight, length, width, and depth were collected.

[5] = 100 μl 250 mM NR into yolk at 11 d, chicks 24 h after hatching

Q: Which “1st rib subcutaneous fat” value ([1]; NR 30 mg/kg daily oral gavage) does the source give for NC(=O)c1ccc[n+]([C@@H]2O[C@H](CO)[C@@H](O)[C@H]2O)c1 [Nicotinamide riboside, nicotinamide riboside] here?
A: 1.76 cm

Q: And the “10th rib subcutaneous fat” value ([1]; NR 30 mg/kg daily oral gavage)?
A: 0.95 cm

Q: And the “Carcass fabrication, Belly” value ([1]; NR 30 mg/kg daily oral gavage)?
A: 7.93 kg

Q: And the “Carcass fabrication, Boneless loin” value ([1]; NR 30 mg/kg daily oral gavage)?
A: 10.39 kg

Q: And the “Carcass fabrication, Boston butt” value ([1]; NR 30 mg/kg daily oral gavage)?
A: 3.22 kg

Q: And the “Carcass fabrication, Ham” value ([1]; NR 30 mg/kg daily oral gavage)?
A: 9.63 kg

Q: What about the “Carcass fabrication, Picnic shoulder” value ([1]; NR 30 mg/kg daily oral gavage) of the same molecule?
A: 4.42 kg

Q: And the Carcass weight ([1]; NR 30 mg/kg daily oral gavage)?
A: 97.4 kg

Q: What about the “Last lumbar subcutaneous fat” value ([1]; NR 30 mg/kg daily oral gavage) of the same molecule?
A: 0.83 cm

Q: What about the “Last rib subcutaneous fat” value ([1]; NR 30 mg/kg daily oral gavage) of the same molecule?
A: 0.91 cm

Q: What about the Loin eye area ([1]; NR 30 mg/kg daily oral gavage) of the same molecule?
A: 7.3 in²

Q: And the “Marbling (National Pork Producers Council marbling score)” value ([1]; NR 30 mg/kg, 1 = none and 10 = abundant)?
A: 2.4

Q: What about the “Color (National Pork Producers Council color score)” value ([1]; NR 30 mg/kg, 1 = pale pinkish gray to white, 6 = dark purplish red) of the same molecule?
A: 3.4

Q: What about the “Increase of NAD+ in the semitendinosus muscle (tendency, P=0.09)” value [2] of the same molecule?
A: 62%

Q: And the “Pectoralis major depth vs NRNeg” value ([3]; 100 μl 250 mM NR at 11 d, treatment main effect (yolk and albumen))?
A: thicker muscles

Q: What about the “Chick weight and Pectoralis major weight and length vs NRNeg” value ([3]; 100 μl 250 mM NR into albumen at 11 d, chicks 24 h after hatching) of the same molecule?
A: no differences

Q: What about the “Chick weight vs NRNeg” value [3, 5] of the same molecule?
A: tended to weigh more

Q: What about the “Pectoralis major length vs NRNeg” value [3, 5] of the same molecule?
A: longer

Q: What about the “Pectoralis major weight vs NRNeg” value [3, 5] of the same molecule?
A: weighed more

Q: What about the Body weight ([4]; 250 mM NR) of the same molecule?
A: 46.42 g

Q: What about the Chest circumference ([4]; 250 mM NR) of the same molecule?
A: 6.0^a,b cm

Q: And the “Crown to rump length” value ([4]; 250 mM NR)?
A: 83.69^a mm

Q: And the Head circumference ([4]; 250 mM NR)?
A: 5.3^a cm

Q: What about the Head length ([4]; 250 mM NR) of the same molecule?
A: 17.70 mm

Q: And the Head width ([4]; 250 mM NR)?
A: 15.42 mm

Q: And the “Organ weight, heart” value ([4]; 250 mM NR)?
A: 0.23 g

Q: What about the “Organ weight, liver” value ([4]; 250 mM NR) of the same molecule?
A: 0.74 g

Q: What about the Pectoralis major length ([4]; 250 mM NR) of the same molecule?
A: 16.73^b mm

Q: And the “Pectoralis major maximum thickness” value ([4]; 250 mM NR)?
A: 2.56^b mm

Q: What about the Pectoralis major weight ([4]; 250 mM NR) of the same molecule?
A: 0.13^a,b g

Q: What about the Pectoralis major width ([4]; 250 mM NR) of the same molecule?
A: 4.90^a,b mm

Q: And the Body weight ([4]; 500 mM NR)?
A: 46.25 g

Q: What about the Chest circumference ([4]; 500 mM NR) of the same molecule?
A: 6.3^b cm

Q: What about the “Crown to rump length” value ([4]; 500 mM NR) of the same molecule?
A: 85.14^a mm

Q: And the Head circumference ([4]; 500 mM NR)?
A: 5.6^b cm

Q: And the Head length ([4]; 500 mM NR)?
A: 17.60 mm

Q: And the Head width ([4]; 500 mM NR)?
A: 15.49 mm

Q: And the “Organ weight, heart” value ([4]; 500 mM NR)?
A: 0.23 g

Q: And the “Organ weight, liver” value ([4]; 500 mM NR)?
A: 0.72 g

Q: And the Pectoralis major length ([4]; 500 mM NR)?
A: 17.51^b mm

Q: What about the “Pectoralis major maximum thickness” value ([4]; 500 mM NR) of the same molecule?
A: 2.36^a,b mm

Q: And the Pectoralis major weight ([4]; 500 mM NR)?
A: 0.16^b g

Q: And the Pectoralis major width ([4]; 500 mM NR)?
A: 5.32^b mm

Q: What about the Body weight ([4]; 1,000 mM NR) of the same molecule?
A: 45.97 g

Q: And the Chest circumference ([4]; 1,000 mM NR)?
A: 6.6^b cm

Q: And the “Crown to rump length” value ([4]; 1,000 mM NR)?
A: 88.20^b mm

Q: And the Head circumference ([4]; 1,000 mM NR)?
A: 5.7^b cm

Q: What about the Head length ([4]; 1,000 mM NR) of the same molecule?
A: 17.98 mm

Q: What about the Head width ([4]; 1,000 mM NR) of the same molecule?
A: 15.69 mm

Q: And the “Organ weight, heart” value ([4]; 1,000 mM NR)?
A: 0.24 g

Q: And the “Organ weight, liver” value ([4]; 1,000 mM NR)?
A: 0.67 g

Q: What about the Pectoralis major length ([4]; 1,000 mM NR) of the same molecule?
A: 17.44^b mm

Q: What about the “Pectoralis major maximum thickness” value ([4]; 1,000 mM NR) of the same molecule?
A: 2.64^b mm

Q: What about the Pectoralis major weight ([4]; 1,000 mM NR) of the same molecule?
A: 0.15^b g

Q: What about the Pectoralis major width ([4]; 1,000 mM NR) of the same molecule?
A: 5.61^b mm
